Experimental data published in PMC5480602 (Slas Discovery, 2017).

How the values were obtained:
[1] = cited from earlier work
[2] = cited from earlier work; remark: listed apart in the source
[3] = target: α4β2 nAChR (Homo sapiens, UniProt P17787+P43681); experiment: cell-based
[4] = target: α3β4α5 nAChR (Homo sapiens, UniProt P30532+P30926+P32297); experiment: cell-based
[5] = target: α3β4 nAChR (Homo sapiens, UniProt P30926+P32297); experiment: cell-based
[6] = read-out: plasma levels (Cmax); in patients; cited from earlier work

α3β4 nAChR, sequence (P32297 32-505): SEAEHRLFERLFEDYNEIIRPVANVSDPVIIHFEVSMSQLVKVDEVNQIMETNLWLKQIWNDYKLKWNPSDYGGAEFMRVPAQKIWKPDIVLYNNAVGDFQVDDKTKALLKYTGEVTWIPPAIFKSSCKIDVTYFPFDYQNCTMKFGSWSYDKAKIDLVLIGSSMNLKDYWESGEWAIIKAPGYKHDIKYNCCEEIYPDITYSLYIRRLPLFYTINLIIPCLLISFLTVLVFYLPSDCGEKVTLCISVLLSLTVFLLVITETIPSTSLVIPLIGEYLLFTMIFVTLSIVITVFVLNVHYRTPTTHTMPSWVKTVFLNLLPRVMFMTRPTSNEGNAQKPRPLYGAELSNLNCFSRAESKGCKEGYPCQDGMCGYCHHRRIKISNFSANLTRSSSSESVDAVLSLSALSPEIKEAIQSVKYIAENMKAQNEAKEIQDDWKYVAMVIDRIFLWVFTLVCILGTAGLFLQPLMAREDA
α3β4 nAChR, sequence (P30926 22-498): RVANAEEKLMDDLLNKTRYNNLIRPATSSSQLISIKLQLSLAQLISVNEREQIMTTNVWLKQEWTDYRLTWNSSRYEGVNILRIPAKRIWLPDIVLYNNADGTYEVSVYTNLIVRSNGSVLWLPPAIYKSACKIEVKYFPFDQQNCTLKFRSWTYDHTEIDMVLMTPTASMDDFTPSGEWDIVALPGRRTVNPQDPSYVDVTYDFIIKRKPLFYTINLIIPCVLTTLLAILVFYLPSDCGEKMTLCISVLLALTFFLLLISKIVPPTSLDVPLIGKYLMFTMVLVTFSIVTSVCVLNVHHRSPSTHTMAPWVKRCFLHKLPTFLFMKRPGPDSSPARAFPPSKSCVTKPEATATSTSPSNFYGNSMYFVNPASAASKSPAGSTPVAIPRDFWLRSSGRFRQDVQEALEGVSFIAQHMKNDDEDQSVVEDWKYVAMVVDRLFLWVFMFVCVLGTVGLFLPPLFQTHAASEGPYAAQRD
α3β4α5 nAChR, sequence (P32297 32-505): as the sequence (P32297 32-505) above
α3β4α5 nAChR, sequence (P30926 22-498): as the sequence (P30926 22-498) above
α3β4α5 nAChR, sequence (P30532 23-468): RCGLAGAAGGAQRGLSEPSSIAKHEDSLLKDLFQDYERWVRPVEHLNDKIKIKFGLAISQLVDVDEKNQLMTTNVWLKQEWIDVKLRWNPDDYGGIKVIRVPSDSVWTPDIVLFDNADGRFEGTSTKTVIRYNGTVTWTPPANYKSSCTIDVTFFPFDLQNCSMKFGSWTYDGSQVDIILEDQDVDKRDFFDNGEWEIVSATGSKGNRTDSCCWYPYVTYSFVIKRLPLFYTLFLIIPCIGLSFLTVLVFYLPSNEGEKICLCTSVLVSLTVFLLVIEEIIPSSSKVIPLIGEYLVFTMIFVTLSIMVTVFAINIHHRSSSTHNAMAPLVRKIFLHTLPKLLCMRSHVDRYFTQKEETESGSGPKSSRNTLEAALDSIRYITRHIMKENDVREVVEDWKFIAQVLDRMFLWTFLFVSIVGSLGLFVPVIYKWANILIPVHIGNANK
α4β2 nAChR, sequence (P43681 29-627 limits assumed): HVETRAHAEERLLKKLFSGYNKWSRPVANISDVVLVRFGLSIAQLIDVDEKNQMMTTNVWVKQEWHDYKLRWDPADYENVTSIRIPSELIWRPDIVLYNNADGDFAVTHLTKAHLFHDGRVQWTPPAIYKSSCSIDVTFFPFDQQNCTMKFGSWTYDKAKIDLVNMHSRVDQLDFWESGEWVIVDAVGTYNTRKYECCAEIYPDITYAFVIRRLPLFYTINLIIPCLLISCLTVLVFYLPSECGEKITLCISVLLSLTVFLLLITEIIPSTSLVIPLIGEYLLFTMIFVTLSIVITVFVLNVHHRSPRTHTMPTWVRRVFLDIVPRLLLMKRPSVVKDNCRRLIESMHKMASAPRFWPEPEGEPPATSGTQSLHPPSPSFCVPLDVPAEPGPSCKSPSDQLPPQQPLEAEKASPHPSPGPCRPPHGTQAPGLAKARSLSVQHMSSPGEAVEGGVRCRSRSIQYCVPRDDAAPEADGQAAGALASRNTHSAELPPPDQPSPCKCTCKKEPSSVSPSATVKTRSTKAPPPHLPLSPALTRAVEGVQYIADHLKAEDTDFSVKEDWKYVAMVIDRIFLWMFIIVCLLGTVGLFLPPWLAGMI
α4β2 nAChR, sequence (P17787 26-502): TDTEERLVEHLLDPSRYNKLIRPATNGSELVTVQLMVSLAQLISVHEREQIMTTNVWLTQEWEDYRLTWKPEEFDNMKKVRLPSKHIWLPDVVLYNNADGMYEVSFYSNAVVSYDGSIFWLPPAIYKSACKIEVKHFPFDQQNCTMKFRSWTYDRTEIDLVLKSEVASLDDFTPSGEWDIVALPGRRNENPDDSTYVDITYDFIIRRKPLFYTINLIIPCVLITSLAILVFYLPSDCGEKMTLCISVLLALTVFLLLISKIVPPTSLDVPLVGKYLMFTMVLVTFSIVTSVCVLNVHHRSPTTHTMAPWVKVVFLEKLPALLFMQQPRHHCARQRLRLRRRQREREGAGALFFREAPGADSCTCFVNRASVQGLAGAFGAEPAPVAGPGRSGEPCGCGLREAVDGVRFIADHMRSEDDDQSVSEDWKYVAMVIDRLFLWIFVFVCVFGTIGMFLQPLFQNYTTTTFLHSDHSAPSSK

N=C(N)c1ccc(OCCCCCOc2ccc(C(=N)N)cc2)cc1 [pentamidine]
efficiency in crossing the blood-brain barrier [1]: ~ 0.04%
plasma concentrations [2]: ~ 1.8 µM

NC1=NCC2c3ccccc3Cc3ccccc3N12 (stereo not shown) [epinastine]
IC50 [3]: ≥ 1000 nM
IC50 [4]: ≥ 1000 nM
efficiency of crossing the blood-brain barrier [1]: ~ 10%
IC50 [5]: ≥ 1000 nM
Cmax [6]: ~100 nM
